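Five concentrations, 48 hours, 96-well plates. GI50 = concentration required for 50% inhibition of growth. TGI: concentration producing complete growth inhibition.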
How the values were obtained:
Assay in all cases: growth of human tumour cells (NCI), 48 h
M14 melanoma = tested on: M14 melanoma
IGROV1 ovarian = tested on: IGROV1 ovarian
MALME-3M melanoma = tested on: MALME-3M melanoma
SN12C renal = tested on: SN12C renal
NCI-H23 lung = tested on: NCI-H23 lung
K-562 leukemia = tested on: K-562 leukemia
UO-31 renal = tested on: UO-31 renal
SK-MEL-2 melanoma = tested on: SK-MEL-2 melanoma
UACC-62 melanoma = tested on: UACC-62 melanoma
MDA-MB-435 = tested on: MDA-MB-435
PC-3 prostate = tested on: PC-3 prostate
MOLT-4 leukemia = tested on: MOLT-4 leukemia
HCT-116 colon = tested on: HCT-116 colon
HCC-2998 colon = tested on: HCC-2998 colon
T-47D breast = tested on: T-47D breast
SK-OV-3 ovarian = tested on: SK-OV-3 ovarian
EKVX NSCLC = tested on: EKVX NSCLC
SR leukemia = tested on: SR leukemia
LOX IMVI melanoma = tested on: LOX IMVI melanoma
CCRF-CEM leukemia = tested on: CCRF-CEM leukemia
HOP-92 NSCLC = tested on: HOP-92 NSCLC
SF-268 CNS = tested on: SF-268 CNS
ACHN renal = tested on: ACHN renal
HS 578T breast = tested on: HS 578T breast
OVCAR-5 ovarian = tested on: OVCAR-5 ovarian
MDA-MB-231 breast = tested on: MDA-MB-231 breast
HCT-15 colon = tested on: HCT-15 colon
COLO 205 colon = tested on: COLO 205 colon
NCI-H460 lung = tested on: NCI-H460 lung
OVCAR-8 ovarian = tested on: OVCAR-8 ovarian
KM12 colon = tested on: KM12 colon
MCF7 breast = tested on: MCF7 breast
SW-620 colon = tested on: SW-620 colon
BT-549 breast = tested on: BT-549 breast
SK-MEL-5 melanoma = tested on: SK-MEL-5 melanoma
SF-539 CNS = tested on: SF-539 CNS
SNB-75 CNS = tested on: SNB-75 CNS
SNB-19 CNS = tested on: SNB-19 CNS
SK-MEL-28 melanoma = tested on: SK-MEL-28 melanoma
OVCAR-4 ovarian = tested on: OVCAR-4 ovarian
HT29 colon = tested on: HT29 colon
RPMI-8226 leukemia = tested on: RPMI-8226 leukemia
786-0 renal = tested on: 786-0 renal
A498 renal = tested on: A498 renal
TK-10 renal = tested on: TK-10 renal
U251 CNS = tested on: U251 CNS
UACC-257 melanoma = tested on: UACC-257 melanoma
NCI-H522 lung = tested on: NCI-H522 lung
A549 NSCLC = tested on: A549 NSCLC
HL-60(TB) leukemia = tested on: HL-60(TB) leukemia
HOP-62 NSCLC = tested on: HOP-62 NSCLC
RXF 393 renal = tested on: RXF 393 renal
NCI/ADR-RES ovarian = tested on: NCI/ADR-RES ovarian
OVCAR-3 ovarian = tested on: OVCAR-3 ovarian
SF-295 CNS = tested on: SF-295 CNS

## C[C@@H]1CCC/C=C/[C@H]2C[C@@H](O)C[C@@H]2[C@@H](O)/C=C/C(=O)O1
M14 melanoma
  GI50: 93.2 nM
  TGI: > 33300 nM
IGROV1 ovarian
  GI50: 145 nM
  TGI: > 33300 nM
MALME-3M melanoma
  GI50: 86.8 nM
  TGI: 1170 nM
SN12C renal
  GI50: 114 nM
  TGI: > 33300 nM
NCI-H23 lung
  GI50: 129 nM
  TGI: > 33300 nM
K-562 leukemia
  GI50: 141 nM
  TGI: > 33300 nM
UO-31 renal
  GI50: 116 nM
  TGI: > 33300 nM
SK-MEL-2 melanoma
  GI50: 92 nM
  TGI: 236 nM
UACC-62 melanoma
  GI50: 138 nM
  TGI: > 33300 nM
MDA-MB-435
  GI50: 136 nM
  TGI: > 33300 nM
PC-3 prostate
  GI50: 125 nM
  TGI: > 33300 nM
MOLT-4 leukemia
  GI50: 146 nM
  TGI: > 33300 nM
HCT-116 colon
  GI50: 99.5 nM
  TGI: > 33300 nM
HCC-2998 colon
  GI50: 139 nM
  TGI: > 33300 nM
T-47D breast
  GI50: 109 nM
  TGI: 1360 nM
SK-OV-3 ovarian
  GI50: 144 nM
  TGI: > 33300 nM
EKVX NSCLC
  GI50: 108 nM
  TGI: > 33300 nM
SR leukemia
  GI50: 111 nM
  TGI: > 33300 nM
LOX IMVI melanoma
  GI50: 67.7 nM
  TGI: 155 nM
CCRF-CEM leukemia
  GI50: 130 nM
  TGI: > 33300 nM
HOP-92 NSCLC
  GI50: 89.2 nM
  TGI: 1280 nM
SF-268 CNS
  GI50: 102 nM
  TGI: > 33300 nM
ACHN renal
  GI50: 113 nM
  TGI: 5160 nM
HS 578T breast
  GI50: 21.1 nM
  TGI: > 33300 nM
OVCAR-5 ovarian
  GI50: 136 nM
  TGI: > 33300 nM
MDA-MB-231 breast
  GI50: 69.7 nM
  TGI: 171 nM
HCT-15 colon
  GI50: 112 nM
  TGI: > 33300 nM
COLO 205 colon
  GI50: 63 nM
  TGI: 131 nM
NCI-H460 lung
  GI50: 115 nM
  TGI: > 33300 nM
OVCAR-8 ovarian
  GI50: 91.4 nM
  TGI: > 33300 nM
KM12 colon
  GI50: 84.5 nM
  TGI: 3420 nM
MCF7 breast
  GI50: 96.6 nM
  TGI: > 33300 nM
SW-620 colon
  GI50: 101 nM
  TGI: 327 nM
BT-549 breast
  GI50: 140 nM
  TGI: > 33300 nM
SK-MEL-5 melanoma
  GI50: 54.7 nM
  TGI: 109 nM
SF-539 CNS
  GI50: 149 nM
  TGI: > 33300 nM
SNB-75 CNS
  GI50: 23 nM
  TGI: > 33300 nM
SNB-19 CNS
  GI50: 167 nM
  TGI: > 33300 nM
SK-MEL-28 melanoma
  GI50: 40 nM
  TGI: 12000 nM
OVCAR-4 ovarian
  GI50: 109 nM
  TGI: > 33300 nM
HT29 colon
  GI50: 96.1 nM
  TGI: 316 nM
RPMI-8226 leukemia
  GI50: 104 nM
  TGI: 553 nM
786-0 renal
  GI50: 95.1 nM
  TGI: > 33300 nM
A498 renal
  GI50: 59.5 nM
  TGI: 166 nM
TK-10 renal
  GI50: 114 nM
  TGI: 961 nM
U251 CNS
  GI50: 137 nM
  TGI: > 33300 nM
UACC-257 melanoma
  GI50: 110 nM
  TGI: > 33300 nM
NCI-H522 lung
  GI50: 75.6 nM
  TGI: 225 nM
A549 NSCLC
  GI50: 127 nM
  TGI: > 33300 nM
HL-60(TB) leukemia
  GI50: 97.3 nM
  TGI: 374 nM
HOP-62 NSCLC
  GI50: 145 nM
  TGI: > 33300 nM
RXF 393 renal
  GI50: 49.8 nM
  TGI: 258 nM
NCI/ADR-RES ovarian
  GI50: 104 nM
  TGI: > 33300 nM
OVCAR-3 ovarian
  GI50: 111 nM
  TGI: 401 nM
SF-295 CNS
  GI50: 140 nM
  TGI: > 33300 nM
